Patent publication US20050169944A1, “Increasing tumor oxygen content by administration of stressed cells” (priority 2002, published 2005)

Experiments:
[1] = system: FSaIIC murine fibrosarcoma; experiment: Tumor growth delay with melphalan (time to 500 mm^3); format: in vivo, C3H mice; conditions: melphalan 10 mg/kg i.p. plus 50 μl of 5 or 20 μg of ozone per ml of oxygen by tail vein injection, then 4 days; FIG. 8
Description: 8 week old male C3H mice were inoculated with 2×10^6 FSaIIC murine fibrosarcoma cells in the hind limb. When tumors reached a volume of 50 mm^3, animal were divided into 4 groups of 10 mice. Group I was untreated, Group II was administered a dose of 10 mg/kg melphalan by intraperitoneal injection. Group III was administered melphalan together with 50 μl of untreated syngeneic blood injected intramuscularly in the non-tumor bearing hind limb. Group IV was administered melphalan with 50 μl of syngeneic blood treated with 20 μl ozone/ml of oxygen. Following the initial melphalan injection, animals in Groups III and IV continued receiving intramuscular injections of 50 μl of untreated syngeneic blood, or 50 μl of syngeneic blood treated with 20 μl ozone/ml of oxygen, respectively for 4 days, one injection per day. All animals were observed until tumors attained a volume of 500 mm^3. The delay in tumor time to achieve 500 mm^3 volume is illustrated in FIG. 4.
8 week old male C3H mice were inoculated with 2×10^6 FSaIIC murine fibrosarcoma cells in the hind limb. When tumors reached a volume of 50 mm^3, animal were divided into 4 groups of 10 mice. Group I was untreated, Group II was administered a dose of 10 mg/kg melphalan by intraperitoneal injection. Group HI was administered melphalan together with an intramuscular injection of 1×10^6 syngeneic untreated mononuclear cells. […]

[2] = Tolerability of intravenous ozone in tumor bearing mice; format: in vivo, C3H mice; conditions: 50 μl of 5 or 20 μg of ozone per ml of oxygen, tail vein, 5 daily injections, with melphalan
Description: In order to stress cells in vivo, ozone at 5 μg per ml of oxygen, or 20 μg per ml of oxygen was injected directly into the tail vein of tumor bearing mice. Such injections are performed by filling a 1 cc syringe with the indicated concentration of ozone in medical grade oxygen. The gas is slowly injected into the tail vein so not to induce embolism. Due to the high solubility of oxygen and ozone in blood, embolism formation is not usually a problem.
8 week old male C3H mice were inoculated with 2×10^6 FSaIIC murine fibrosarcoma cells in the hind limb. When tumors reached a volume of 50 mm^3, animal were divided into 4 groups of 10 mice. Group I was untreated, Group II was administered a dose of 10 mg/kg melphalan by intraperitoneal injection. Group III was administered melphalan together with 50 μl of 5 μg of ozone per ml of oxygen by tail vein injection. Group IV was administered melphalan with 50 μl of 20 μg of ozone per ml of oxygen by tail vein injection. Following the initial melphalan injection, animals in Groups III and IV continued receiving intravenous injections of 50 μl of 5 μg of ozone per ml of oxygen, or 50 μl of 20 μg of ozone per ml of oxygen, respectively for 4 days, one injection per day. All animals were observed until tumors attained a volume of 500 mm^3. The delay in tumor time to achieve […] volume is illustrated in FIG. 8.

O=[O+][O-] [intravenous ozone, ozone]
delay in time to achieve 500 mm^3 tumor volume with melphalan [1]: increased the tumor inhibitory effects of melphalan | tolerability [2]: well tolerated
